Source: patent US5219884A, “Immunosuppressant” (Taito Co., Ltd., priority 1990, dated 1993)
Where two headings read alike, the source gives them in different places.

Key:
[1] = system: IL3-dependent mouse cell line FDC-P2; test: suppression of IL3-induced proliferation of FDC-P2; assay type: cell-based; conditions: for inhibition at 0.001 µg/mL / inhibition at 0.01 µg/mL / inhibition at 0.1 µg/mL / inhibition at 1 µg/mL / inhibition at 10 µg/mL: Mus musculus, 24 h
Description: IL3-dependent mouse cell line FDC-P2 cells were suspended in the RPMI1640 culture medium supplemented with 10% FCS to the concentration of 2×10^5 cells/ml. One hundred μl of the suspension and 50 μl of the supernatant of the culture of mouse luekemia cells WEHI3 containing IL3 were added to each well of 96-well microculture plates in which 100 μl of the test substance had been placed. After culturing at 37° C. in an atmosphere of 5% carbon dioxide for 20 hours, 0.5 μCi/well of ^3 H-thymidine was added, and cultured for 4 hours under the same conditions. After termination of the culture, the cells were harvested by a cell harvester, and the radioactivity incorporated into the cells was determined by a liquid scintillation counter, and was used as an index of the IL3-dependent proliferation.

[2] = system: interleukin 2 receptor (IL-2R, Tac) expression in PHA-stimulated mouse spleen cells; test: suppression of induction of IL-2R (Tac) expression in PHA-stimulated mouse spleen cells; assay type: cell-based
Description: Mouse allogenic MLC and PHA-stimulated mouse spleen cells were prepared in the same as in Experimental Example 3.
The IL-2R (Tac) induced in mouse allogenic MLC and PHA-stimulated mouse spleen cells was assayed as follows:
After culturing the mouse allogenic MLC and the PHA-stimulated mouse spleen cells at 37° C. in an atmosphere of 5% carbon dioxide for 24 hours, the cells were collected by centrifugation (1000 rpm, 5 minutes, 4° C.), and about 10^6 cells were cultured in 10 μl of phosphate buffered saline (PBS), to which 0.02% sodium azide-containing rat anti-mouse IL-2R monoclonal antibody (manufactured by Boehringer Co., 40 μg/ml) had been added, for 30 minutes with ice-cooling. After washing three times with ice-cooled PBS containing 0.02% sodium azide, 50 μl of fluorescein isothiocyanate (FITC)-labeled goat anti-rat immunoglobulin G antibody was added and cultured for 30 minutes with ice-cooling. To the cell pellet after washing three times with ice-cooled 0.02% sodium azide-added PBS was added, a few drops of PBS containing 0.2% sodium azide and 50% glycerin. Prepared specimens on non-fluorescent slide glasses were made and the IL-2R positive cells were counted under a fluorescent microscope to determine the ratio of numbers of IL-2R positive cells in the total numbers of the cells.

PC-6 = test: cytotoxicity to tumor cell line PC-6; assay type: cell-based, human
Description: (§1) Cytotoxicity to human tumor cell lines was examined as follows:
(§2) Cells of human cell lines, K562, MOLT4, U937, HL60, KATOIII, KB, PC-6, PC-14 and CCRF-CEM were separately suspended to the concentration of 2×10^5 cells/ml in the RPMI1640 culture medium supplemented with 20% FCS. Fifty μl of this suspension was added to each well of 96-well microculture plates to which 50 μl of the test solution had been added. After culturing at 37° C. in an atmosphere of 5% carbon dioxide for 72 hours, the absorbancy at 550 nm was measured in the same way as the colorimetry using MTT in Experimental Example 1, and the percent suppression was calculated in the same manner as in Experimental Example 14, which was used as the index of cytotoxicity.

[3] = cytotoxicity to tumor cell line PC-6; assay type: cell-based, human; conditions: human, pc-6 cells, read-out: Suppression
Description: as §1, §2

[4] = system: IL3 production in PHA-stimulated mouse spleen cells; test: suppression of IL3 production in PHA-stimulated mouse spleen cells; assay type: cell-based; conditions: for inhibition at 0.01 µg/mL / inhibition at 0.1 µg/mL / inhibition at 1 µg/mL / inhibition at 10 µg/mL: Mus musculus, read-out: Suppression
Description: The supernatant of mouse allogenic MLC and the supernatant of PHA-stimulated mouse spleen cells culture were prepared in the same manner as in Experimental Example 6.
The IL3 activity in the supernatant described above was assayed as follows: IL3-dependent mouse cell line FDC-P2 cells were suspended in the RPMI1640 culture medium supplemented with 10% FCS to the concentration of 10^5 cells/ml, and 100 μl of the suspension was added to each well of 96-well microculture plates in which 100 μl per well of the two-fold serial dilutions of the supernatant described above had been placed. After culturing at 37° C. in an atmosphere of 5% carbon dioxide for 20 hours, 0.5 μCi/well of ^3 H-thymidine was added, and cultured for further 4 hours under the same conditions. After termination of the culture, the cells were harvested by a cell harvester, and the radioactivity incorporated into the cells was measured by a liquid scintillation counter. The IL3 activity was expressed in U/ml as the titer at the concentrations at which the amount of ^3 H-thymidine incorporated was 50% of the maximum.

[5] = system: mouse spleen cells stimulated with phytohemagglutinin (PHA); test: suppression of blastogenic response of mouse spleen cells by PHA; assay type: cell-based; conditions: PHA (1/100); for inhibition at 0.01 µg/mL / inhibition at 0.1 µg/mL / inhibition at 1 µg/mL: Mus musculus, 76 h
Description: The effect on the mouse blastogenic response of mouse spleen cells stimulated with phytohemagglutinin (PHA) or with pokeweed mitogen (PWM) was examined as follows:
The spleen was resected from 5- to 8-week-old male […] BALB/c mice, and single cell suspension of spleen cells was prepared by using the RPMI1640 culture medium supplemented with 5% FCS. After hemolytic treatment, the concentration of the suspension was adjusted to 5×10^6 cells/ml by using the RPMI1640 culture medium supplemented with 10^-4 M 2-mercaptoethanol and 20% FCS, to which PHA or PWM was added. One hundred μl of the cell suspension was added to each well of 96-well microculture plates to which 100 μl per well of the test solution had been added (5×10^5 mouse spleen cells per well). After culturing at 37° C. in an atmosphere of 5% carbon dioxide for 72 hours, 0.5 μCi/well of ^3 H-thymidine was added and cultured under the same conditions for further 4 hours. After termination of the culture, the cells were harvested by a cell harvester, and the radioactivity incorporated into the cells was measured by a liquid scintillation counter, which was used as the index of blastogenic response of mouse spleen cells.

In the case of `CCCCCCC(=O)CCCCCC/C=C/CC(O)C(O)C(N)(CO)C(=O)O` (stereo not shown) [Example 1], the 3H-thymidine uptake ([1]; 0.001 μg/ml) is reported as 6858 cpm, the 3H-thymidine uptake ([1]; 0.01 μg/ml) is reported as 6572 cpm and the 3H-thymidine uptake ([1]; 0.1 μg/ml) is reported as 5203 cpm. For the same compound, the 3H-thymidine uptake ([1]; 1 μg/ml) was 5029 cpm, the 3H-thymidine uptake ([1]; 10 μg/ml) was 2750 cpm and the inhibition at 0.001 µg/mL ([1]; 0.001 μg/ml) was 21.5%. The inhibition at 0.01 µg/mL ([1]; 0.01 μg/ml) was 25.7%, the inhibition at 0.1 µg/mL ([1]; 0.1 μg/ml) was 45.9% and the inhibition at 1 µg/mL ([1]; 1 μg/ml) was 48.5%. The inhibition at 10 µg/mL ([1]; 10 μg/ml) was 82.1%, the IL-2R positive cells ([2]; 0.1 μg/ml) was 36.6% and the IL-2R positive cells ([2]; 1 μg/ml) was 26.6%. It also gave an IL-2R positive cells ([2]; 10 μg/ml) of 13.4%, an inhibition at 0.1 µg/mL ([2]; Mus musculus, 24 h, 0.1 μg/ml) of 20.8% and an inhibition at 1 µg/mL ([2]; Mus musculus, 24 h, 1 μg/ml) of 42.4%. The inhibition at 10 µg/mL ([2]; Mus musculus, 24 h, 10 μg/ml) was 71%, the Absorbancy (PC-6; 0.01 μg/ml) was 0.244 and the Absorbancy (PC-6; 0.1 μg/ml) was 0.245. The Absorbancy (PC-6; 1.0 μg/ml) was 0.209, the Absorbancy (PC-6; 10.0 μg/ml) was 0.202 and the Absorbancy (PC-6; 100.0 μg/ml) was 0.000. For the same compound, the cytotoxicity at 72 h ([3]; 0.1 μg/ml) was 9.9%, the cytotoxicity at 72 h ([3]; 1.0 μg/ml) was 23.2% and the cytotoxicity at 72 h ([3]; 100.0 μg/ml) was 100%. It also gave an IL3 activity ([4]; 0.01 μg/ml) of 4.0 U/ml, an IL3 activity ([4]; 0.1 μg/ml) of under 2 U/ml and an IL3 activity ([4]; 1 μg/ml) of under 2 U/ml. For the same compound, the IL3 activity ([4]; 10 μg/ml) was under 2 U/ml, the inhibition at 0.01 µg/mL [4] was 76.6% and the inhibition at 0.1 µg/mL [4] was over 90%. It also gave an inhibition at 1 µg/mL [4] of over 90%, an inhibition at 10 µg/mL [4] of over 90% and an inhibition at 0.01 µg/mL ([5]; 0.01 μg/ml) of 71.9%. It also gave an inhibition at 0.1 µg/mL ([5]; 0.1 μg/ml) of 66.8%, an inhibition at 1 µg/mL ([5]; 1 μg/ml) of 92.4% and a 3H-thymidine uptake ([5]; 0.01 μg/ml) of 3238 cpm. For the same compound, the 3H-thymidine uptake ([5]; 0.1 μg/ml) was 3624 cpm and the 3H-thymidine uptake ([5]; 1 μg/ml) was 1686 cpm.

In the case of `CCCCCCC(=O)CCCCCC/C=C/CC1OC(=O)C(N)(CO)C1O` (stereo not shown) [Example 4], the 3H-thymidine uptake ([1]; 0.001 μg/ml) is reported as 7754 cpm, the 3H-thymidine uptake ([1]; 0.01 μg/ml) is reported as 6557 cpm and the 3H-thymidine uptake ([1]; 0.1 μg/ml) is reported as 5861 cpm. It also gave a 3H-thymidine uptake ([1]; 1 μg/ml) of 4922 cpm, a 3H-thymidine uptake ([1]; 10 μg/ml) of 2902 cpm and an inhibition at 0.001 µg/mL ([1]; 0.001 μg/ml) of 8.3%. For the same compound, the inhibition at 0.01 µg/mL ([1]; 0.01 μg/ml) was 25.9%, the inhibition at 0.1 µg/mL ([1]; 0.1 μg/ml) was 36.2% and the inhibition at 1 µg/mL ([1]; 1 μg/ml) was 50.1%. For the same compound, the inhibition at 10 µg/mL ([1]; 10 μg/ml) was 79.9%, the Absorbancy (PC-6; 0.1 μg/ml) was 0.247 and the Absorbancy (PC-6; 1.0 μg/ml) was 0.273. The Absorbancy (PC-6; 10.0 μg/ml) was 0.271, the Absorbancy (PC-6; 100.0 μg/ml) was 0.014 and the cytotoxicity at 72 h ([3]; 0.1 μg/ml) was 15.1%. For the same compound, the cytotoxicity at 72 h ([3]; 1.0 μg/ml) was 6.2%, the cytotoxicity at 72 h ([3]; 10.0 μg/ml) was 6.9% and the cytotoxicity at 72 h ([3]; 100.0 μg/ml) was 95.2%. The IL3 activity ([4]; 0.01 μg/ml) was 9.1 U/ml, the IL3 activity ([4]; 0.1 μg/ml) was 2.8 U/ml and the IL3 activity ([4]; 1 μg/ml) was 2.3 U/ml. It also gave an IL3 activity ([4]; 10 μg/ml) of under 2 U/ml, an inhibition at 0.01 µg/mL ([4]; 0.01 μg/ml) of 46.8% and an inhibition at 0.1 µg/mL ([4]; 0.1 μg/ml) of 83.6%. For the same compound, the inhibition at 1 µg/mL ([4]; 1 μg/ml) was 86.5%, the inhibition at 10 µg/mL ([4]; 10 μg/ml) was over 90% and the inhibition at 0.01 µg/mL ([5]; 0.01 μg/ml) was 34.5%. It also gave an inhibition at 0.1 µg/mL ([5]; 0.1 μg/ml) of 57.8%, an inhibition at 1 µg/mL ([5]; 1 μg/ml) of 71% and a 3H-thymidine uptake ([5]; 0.01 μg/ml) of 6074 cpm. The 3H-thymidine uptake ([5]; 0.1 μg/ml) was 4312 cpm and the 3H-thymidine uptake ([5]; 1 μg/ml) was 3308 cpm.
